Reference: patent US20130324404A1, “1, 8 -DIAZASPIRO [4.5] DECANE- 2, 4 -DIONE DERIVATIVES USEFUL AS PESTICIDES” (SYNGENTA PARTICIPATIONS AG, priority 2010, published 2013)

Experiments:
[1] = test system: Myzus persicae (green peach aphid); assay: Example B1: Activity against Myzus persicae, mixed population, feeding/residual contact activity, preventive (sunflower leaf discs); assay type: in vivo; conditions: foliar, 144 h, sprayed sunflower leaf discs, 6 days incubation
Protocol: (§1) Activity Against Myzus persicae (Green Peach Aphid)
(§2) (Mixed Population, Feeding/Residual Contact Activity, Preventive)
Sunflower leaf discs are placed on agar in a 24-well microtiter plate and sprayed with test solutions. After drying, the leaf discs are infested with an aphid population of mixed ages. After an incubation period of 6 days, samples are checked for mortality and special effects (e.g. phytotoxicity).

[2] = test system: Myzus persicae (green peach aphid); assay: Example B2: Activity against Myzus persicae, mixed population, systemic/feeding activity, curative (pea seedlings); assay type: in vivo; conditions: 144 h, roots of infested pea seedlings in test solution, 6 days, systemic
Source text: as §1
(Mixed Population, Systemic/Feeding Activity, Curative)
Roots of pea seedlings, infested with an aphid population of mixed ages, are placed directly in the test solutions. 6 days after introduction, samples are checked for mortality and special effects on the plant.

[3] = test system: Myzus persicae (green peach aphid); assay: Example B5: Activity against Myzus persicae, mixed population, feeding/residual contact activity (infested cabbage plants, spray chamber); assay type: in vivo; conditions: 144 h, infested cabbage plants sprayed, 6 days after treatment
Protocol: as §1
(§3) (Mixed Population, Feeding/Residual Contact Activity, Plant Damage Evaluation)
(§4) Cabbage plants infested with a mixed population of Myzus persicae are treated with diluted test solutions of the compounds in a spray chamber. 6 days after treatment, samples are checked for mortality and for plant damage (phytotoxicity), visual assessment being made using a 0-100% rating scale (100%=total damage to plant; 0%=no damage to plant). In this test, compounds listed in the tables above show good activity against Myzus persicae and acceptable plant compatibility. For example compounds P1.1, P1.2, P1.3, P1.4, P1.6, P1.7, P1.8, P1.9, P1.10, P1.11 and P1.12 show an activity of greater or equal to 80% against Myzus persicae and damage to cabbage plants less or equal to 10% at a concentration of 200 ppm.

[4] = test system: cabbage plants; conditions: in vivo, 6 days, 200 ppm
Protocol: as §1, §3, §4

[5] = test system: Thrips tabaci (onion thrips); assay: Example B3: Activity against Thrips tabaci, mixed population, feeding/residual contact activity, preventive (sunflower leaf discs); assay type: in vivo; conditions: foliar, 144 h, sprayed sunflower leaf discs, 6 days incubation
Protocol: Activity Against Thrips tabaci (Onion Thrips)
as §2
Sunflower leaf discs are placed on agar in a 24-well microtiter plate and sprayed with test solutions. After drying, the leaf discs are infested with a thrips population of mixed ages. After an incubation period of 6 days, samples are checked for mortality and special effects (e.g. phytotoxicity).

[6] = test system: Tetranychus urticae (two-spotted spider mite); assay: whole plant or invertebrate; assay type: in vivo; conditions: foliar, 192 h, read-out: activity (egg, larval and adult mortality) against Tetranychus urticae
Source text: Activity Against Tetranychus urticae (Two-Spotted Spider Mite)
as §2
Bean leaf discs on agar in 24-well microtiter plates are sprayed with test solutions. After drying, the leaf discs are infested with mite populations of mixed ages. 8 days later, discs are checked for egg mortality, larval mortality, and adult mortality.

Structure (SMILES) | mortality at 200 ppm [3] [%] | damage to cabbage plants (phytotoxicity), 0-100% rating scale [4] [%] | melting point | further results
COCON1C(=O)C(Cl)(c2cc(C)ccc2C)C(=O)C12CCN(OC)CC2 (centres unmarked) [Compound P1.1, 3-Chloro-3-(2,5-dimethyl-phenyl)-8-methoxy-1-methoxymethoxy-1,8-diaza-spiro[4.5]decane-2,4-dione] | ≥ 80 | ≤ 10 | – | mortality at 400 ppm [1]: > 80%; mortality at 400 ppm [2]: > 80%
COCCON1C(=O)C(Cl)(c2c(C)cc(C)cc2C)C(=O)C12CCN(OC)CC2 (centres unmarked) [Compound P1.2] | ≥ 80 | ≤ 10 | – | mortality at 400 ppm [1]: > 80%; mortality at 400 ppm [2]: > 80%
CCON1C(=O)C(Cl)(c2c(C)cc(C)cc2C)C(=O)C12CCN(OC)CC2 (centres unmarked) [Compound P1.3] | ≥ 80 | ≤ 10 | – | mortality at 400 ppm [1]: > 80%; mortality at 400 ppm [2]: > 80%; mortality at 400 ppm [5]: > 80%
CON1CCC2(CC1)C(=O)C(Cl)(c1c(C)cc(C)cc1C)C(=O)N2OCC1CCCC1 (centres unmarked) [Compound P1.4] | ≥ 80 | ≤ 10 | – | –
CON1CCC2(CC1)C(=O)C(Cl)(c1c(C)cc(C)cc1C)C(=O)N2OC1CCCCC1 (centres unmarked) [Compound P1.6] | ≥ 80 | ≤ 10 | – | –
COCCON1C(=O)C(Cl)(c2cc(C)c(C)cc2Cl)C(=O)C12CCN(OC)CC2 (centres unmarked) [Compound P1.7, 3-Chloro-3-(2-chloro-4,5-dimethyl-phenyl)-8-methoxy-1-(2-methoxy-ethoxy)-1,8-diaza-spiro[4.5]decane-2,4-dione] | ≥ 80 | ≤ 10 | – | mortality at 400 ppm [1]: > 80%; mortality at 400 ppm [2]: > 80%
CON1CCC2(CC1)C(=O)C(c1c(C)ccc(Cl)c1C)([N+](=O)[O-])C(=O)N2OC (centres unmarked) [Compound P1.8, 3-(3-Chloro-2,6-dimethyl-phenyl)-1,8-dimethoxy-3-nitro-1,8-diaza-spiro[4.5]decane-2,4-dione] | ≥ 80 | ≤ 10 | – | –
CON1CCC2(CC1)C(=O)C(Cl)(c1c(C)cc(C)cc1C)C(=O)N2OCC1CCOC1 (centres unmarked) [Compound P1.9] | ≥ 80 | ≤ 10 | – | mortality at 400 ppm [1]: > 80%; mortality at 400 ppm [2]: > 80%
CON1CCC2(CC1)C(=O)C(Cl)(c1c(C)cc(C)cc1C)C(=O)N2OCC1CCOCC1 (centres unmarked) [Compound P1.10] | ≥ 80 | ≤ 10 | – | mortality at 400 ppm [1]: > 80%; mortality at 400 ppm [2]: > 80%
CON1CCC2(CC1)C(=O)C(Cl)(c1c(C)cc(C)cc1C)C(=O)N2OC1CCOC1 (centres unmarked) [Compound P1.11] | ≥ 80 | ≤ 10 | – | mortality at 400 ppm [2]: > 80%
CON1CCC2(CC1)C(=O)C(Cl)(c1cc(Br)c(C)cc1C)C(=O)N2OC (centres unmarked) [Compound P1.12] | ≥ 80 | ≤ 10 | – | –
COCCON1C(=O)C(Cl)(c2cc(-c3ccc(Cl)cc3)c(F)cc2C)C(=O)C12CCN(OC)CC2 (centres unmarked) [Compound P1.13] | – | – | – | mortality at 400 ppm [6]: > 80%
COCON1C(=O)C(c2c(C)cc(-c3ccc(Cl)cc3)cc2C)=C(O)C12CCN(OC)CC2 [Compound P2.15, 3-(4′-Chloro-3,5-dimethyl-biphenyl-4-yl)-4-hydroxy-8-methoxy-1-methoxymethoxy-1,8-diaza-spiro[4.5]dec-3-en-2-one] | – | – | 128 °C (dec.) | –
CON1CCC2(CC1)C(O)=C(c1c(C)cc(C)cc1C)C(=O)N2OCCOC1CCCCO1 (centres unmarked) [Compound P2.22] | – | – | 135 to 137 °C | –
COCON1C(=O)C(c2c(F)ccc(C)c2Cl)=C(O)C12CCN(OC)CC2 [Compound P2.60] | – | – | 155 to 158 °C | –
COCCON1C(=O)C(c2cc(Br)c(C)cc2C)=C(O)C12CCN(OC)CC2 [Compound P2.73] | – | – | 63 to 64 °C | –
CON1CCC2(CC1)C(O)=C(c1cc(Br)c(C)cc1C)C(=O)N2OC [Compound P2.75] | – | – | 86 to 87 °C | –
COCCON1C(=O)C(c2cc(Br)c(F)cc2C)=C(O)C12CCN(OC)CC2 [Compound P2.87] | – | – | 71 to 74 °C | –
COCON1C(=O)C(c2cc(Br)c(F)cc2C)=C(O)C12CCN(OC)CC2 [Compound P2.89] | – | – | 64 to 67 °C | –
CON1CCC2(CC1)C(O)=C(c1c(C)cc(C)cc1C)C(=O)N2OCC1CCCCC1 [Compound P2.96] | – | – | 169 to 172 °C | –
COCCON1C(=O)C(c2c(C)cc(Cl)cc2C)=C(O)C12CCN(OC)CC2 [Compound P2.101] | – | – | 161 to 164 °C | –
CON1CCC2(CC1)C(O)=C(c1c(C)cc(Cl)cc1C)C(=O)N2OC [Compound P2.102] | – | – | 88 to 92 °C | –
CON1CCC2(CC1)C(O)=C(c1c(C)cc(Cl)cc1C)C(=O)N2O [Compound P2.103, 3-(4-Chloro-2,6-dimethyl-phenyl)-1,4-dihydroxy-8-methoxy-1,8-diaza-spiro[4.5]dec-3-en-2-one] | – | – | 228 to 231 °C | –
COCON1C(=O)C(c2c(C)cc(Cl)cc2C)=C(O)C12CCN(OC)CC2 [Compound P2.104] | – | – | 176 to 178 °C | –
CON1CCC2(CC1)C(O)=C(c1c(C)cc(Cl)cc1C)C(=O)N2OC1CCCO1 (centres unmarked) [Compound P2.105] | – | – | 137 to 139 °C | –
